Source: patent publication US7326718B2, “8-Substituted imidazopyridines” (Altana Pharma AG, priority 2002, dated 2008)

Experiments:
[1] = tested on: pentagastrin-stimulated acid secretion of the perfused rat stomach; assay: Secretion-inhibiting action on the perfused rat stomach (pentagastrin-stimulated acid secretion, intraduodenal administration in vivo); conditions: dose 1 μmol/kg i.d., anaesthetized female CD rat, pentagastrin-stimulated (1 μg/kg i.v. infusion)
Text: Testing of the Secretion-Inhibiting Action on the Perfused Rat Stomach
In Table A which follows, the influence of the compounds according to the invention on the pentagastrin-stimulated acid secretion of the perfused rat stomach after intraduodenal administration in vivo is shown.
The abdomen of anaesthetized rats (CD rat, female, 200-250 g; 1.5 g/kg i.m. urethane) was opened after tracheotomy by a median upper abdominal incision and a PVC catheter was fixed transorally in the oesophagus and another via the pylorus such that the ends of the tubes just projected into the gastric lumen. The catheter leading from the pylorus led outward into the right abdominal wall through a side opening.
After thorough rinsing (about 50-100 ml), warm (37° C.) physiological NaCl solution was continuously passed through the stomach (0.5 ml/min, ph 6.8-6.9; Braun-Unita I). The pH (pH meter 632, glass electrode EA 147; φ=5 mm, Metrohm) and, by titration with a freshly prepared 0.01N NaOH solution to ph 7 (Dosimat 665 Metrohm), the secreted HCl were determined in the effluent in each case collected at an interval of 15 minutes.
The gastric secretion was stimulated by continuous infusion of 1 μg/kg (=1.65 ml/h) of i.v. pentagastrin (left femoral vein) about 30 min after the end of the operation (i.e. after determination of 2 preliminary fractions). The substances to be tested were administered intraduodenally in a 2.5 ml/kg liquid volume 60 min after the start of the continuous pentagastrin infusion.
The body temperature of the animals was kept at a constant 37.8-38° C. by infrared irradiation and heat pads (automatic, stepless control by means of a rectal temperature sensor).

SMILES | melting point [°C] | Inhibition of acid secretion (%) [1] [%]
Cc1nc2c(O[C@@H]3c4ccccc4C[C@H]3O)cc(C(=O)N(C)C)cn2c1C (relative stereo) [Example 9, 8-(trans-2,3-Dihydro-2-hydroxy-1-indenyloxy)-6-(N,N-dimethylamino-carbonyl)-2,3-dimethyl-imidazo[1,2-a]pyridine] |  | >30
COc1cccc2c1[C@@H](Oc1cc(C(=O)N(C)C)cn3c(C)c(C)nc13)[C@H](O)C2 (relative stereo) [Example 16, 8-(trans-2,3-Dihydro-2-hydroxy-7-methoxy-1-indenyloxy)-6-(N,N-dimethylamino-carbonyl)-2,3-dimethyl-imidazo[1,2-a]pyridine] |  | >30
Cc1nc2c(O[C@H]3c4ccccc4C[C@@H]3O)cc(C(=O)N(C)C)cn2c1C [Example 14, 8-[(1S,2S)-2,3-Dihydro-2-hydroxy-1-indenyloxy)-6-(N,N-dimethylamino-carbonyl)-2,3-dimethyl-imidazo[1,2-a]pyridine] |  | >30
Cc1cccc2c1[C@@H](Oc1cc(C(=O)N(C)C)cn3c(C)c(C)nc13)[C@H](O)C2 [Example 17] |  | >30

More lines, main results first:

melting point [°C] | SMILES | Inhibition of acid secretion (%) [1] [%]
246 to 249 | Cc1nc2c(N[C@@H]3c4ccccc4C[C@H]3O)cc(C(=O)O)cn2c1C (relative stereo) [Example 2, 8-(trans-2,3-Dihydro-2-hydroxy-1-indenylamino)-2,3-dimethyl-imidazo[1,2-a]pyridine-6-carboxylic acid] | 
261 to 262 | COC(=O)c1cc(N[C@@H]2c3ccccc3C[C@H]2O)c2nc(C)c(C)n2c1 (relative stereo) [Example 1, Methyl 8-(trans-2,3-dihydro-2-hydroxy-1-indenylamino)-2,3-dimethyl-imidazo[1,2-a]pyridine-6-carboxylate] | 
142 to 143 | COCc1cc(O[C@@H]2c3ccccc3C[C@H]2O)c2nc(C)c(C)n2c1 (relative stereo) [Example 11, 8-(trans-2,3-Dihydro-2-hydroxy-1-indenyloxy)-6-methoxymethyl-2,3-dimethyl-imidazo[1,2-a]pyridine] | >30
229 to 231 | Cc1nc2c(O[C@@H]3c4ccccc4C[C@H]3O)cc(C(=O)O)cn2c1C (relative stereo) [Example 8, 8-(trans-2,3-Dihydro-2-hydroxy-1-indenyloxy)-2,3-dimethyl-imidazo[1,2-a]pyridine-6-carboxylic acid] | 
129 | Cc1nc2c(O[C@@H]3c4ccccc4CC[C@H]3O)cc(C(=O)N(C)C)cn2c1C.Cl (relative stereo) [Example 15, 6-(N,N-Dimethylamino-carbonyl)-2,3-dimethyl-8-(trans-1,2,3,4-tetrahydro-2-hydroxy-1-naphthalenyloxy)-imidazo[1,2-a]pyridine hydrochloride] | >30
